# According to publication PMC9555310, “Novel inhibitors and activity-based probes targeting serine proteases” (Frontiers in Chemistry, 2022):
# Columns and labels:
# [1] = molecular target: T1, cathepsin B (CTSB) (Homo sapiens, UniProt P07858); experiment: Off-target study, residual activity after 2 min pre-incubation: cathepsin B; type: biochemical; conditions: 25 and 50 μM, 0.1 M MES pH 6.1, 1 mM EDTA, 37°C
# T1 construct: purchased R and D Systems
# Procedure: FIGURE 5 Results of “off-target“ studies. NAP849 (A), NAP800 (B) and NAP830 (C) were tested against trypsin, chymotrypsin, and NE. Samples (approx. 0.01 μg) of each protease were incubated with the indicated concentrations of test compound for 2 min, in PBS, pH 7.4, at 37°C. (D) NAP858, NAP962 and NAP849 were tested against cathepsin B at the indicated concentrations in 0.1 M MES, pH 6.1, containing 1 mM EDTA, for 2 min, at 37°C. Aliquots (approx. 10 μL) of each incubation sample were then added to a fresh sample (990 μL) of PBS for the serine proteases and MES for cathepsin B, containing the appropriate substrate for each protease, to measure their residual activity. Controls incubations were performed in the absence of test compound, but in the presence of an appropriate volume of DMF vehicle used to prepare stock solutions of each inhibitor under study.
# Two elements were investigated regarding possible “off-target” effects–determining the extent of cross-reactivity of each of the new putative ABPs between the various serine protease family members and assessing their collateral inhibitory action against another mechanistic class–the cysteine proteases, using cathepsin B (CTSB) as an exemplar.
# For assays requiring a pre-incubation step enzyme and inhibitor in assay buffer were incubated together, at 37 °C, for 2 min, with gentle agitation. The reaction mixture was then aliquoted (50 μL) in duplicate on a black 96-well microtitre plate followed by addition of substrate to make a final concentration of 50 μM in a total volume of 100 μL. The fluorescence production was then measured as described for the previous procedure.
# Assays with Cathepsin B required a pre-activation step of the protease prior to use in the fluorogenic enzyme assays. Cathepsin B was diluted to 10 μg/ml in activation buffer (0.1 M MES, pH 6.1, containing 1 mM EDTA and 2 mM DTT) and left to stand at room temperature for 15 minutes. Activated Cathepsin B was then diluted (1:50 to give 10 ng/50 μl) with assay buffer (activation buffer minus the DTT) prior to use as described previously.
# [2] = molecular target: T2, plasmin (Homo sapiens, UniProt P00747); experiment: Irreversible inhibition kinetics of plasmin (fluorogenic substrate progress curves); type: biochemical; conditions: PBS pH 7.4, 37°C, mean ± SD (n=2); for Ki: Boc-Val-Leu-Lys-NHMec 50 μM; for k 3: first-order rate constant; for k 3 / K i: second-order rate constant of inactivation
# T2 construct: purchased Sigma-Aldrich (supplement); R&D Systems; host or cells: human plasma
# T2 sequence (P00747 581-810 limits assumed): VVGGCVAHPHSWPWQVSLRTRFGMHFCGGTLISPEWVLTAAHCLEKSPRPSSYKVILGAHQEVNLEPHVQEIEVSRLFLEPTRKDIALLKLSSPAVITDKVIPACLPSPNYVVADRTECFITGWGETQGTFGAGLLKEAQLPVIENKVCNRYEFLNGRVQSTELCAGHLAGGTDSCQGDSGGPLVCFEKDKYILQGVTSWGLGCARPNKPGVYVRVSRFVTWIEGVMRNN
# T2 sequence (P00747 97-580 partner limits assumed): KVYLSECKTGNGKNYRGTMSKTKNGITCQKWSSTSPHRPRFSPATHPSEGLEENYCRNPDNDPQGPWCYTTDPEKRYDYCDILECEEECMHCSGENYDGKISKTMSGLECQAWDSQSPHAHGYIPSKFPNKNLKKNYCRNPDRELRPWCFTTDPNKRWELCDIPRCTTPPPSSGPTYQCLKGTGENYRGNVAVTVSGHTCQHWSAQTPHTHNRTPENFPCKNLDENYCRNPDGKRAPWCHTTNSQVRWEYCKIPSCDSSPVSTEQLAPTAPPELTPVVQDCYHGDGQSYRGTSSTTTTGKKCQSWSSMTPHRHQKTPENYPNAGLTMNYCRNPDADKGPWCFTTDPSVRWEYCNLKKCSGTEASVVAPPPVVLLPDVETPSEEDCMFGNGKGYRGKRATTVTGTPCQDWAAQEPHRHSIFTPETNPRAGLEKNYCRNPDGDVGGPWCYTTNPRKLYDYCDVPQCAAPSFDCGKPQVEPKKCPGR
# Procedure: A range of inhibitor concentrations were prepared from a 10 mM stock solution of the test compounds (NAP533, NAP559, NAP800, NAP830, NAP849, and NAP962) in N, N-dimethylformamide (DMF). Recombinant protease activities were assayed using the cognate fluorogenic substrates as follows: trypsin (Z-Gly-Gly-Arg-NHMec), thrombin (Boc-Val-Pro-Arg-NHMec), plasmin (Boc-Val-Leu-Lys-NHMec), human neutrophil elastase (MeO-Succinyl-Ala-Ala-Pro-Val-NHMec), and chymotrypsin (Succinyl-Ala-Ala-Pro-Phe-NHMec). Each substrate was used at a final concentration of 50 μM, in the appropriate buffer for each protease. All inhibition assays were performed in microtiter plates maintained at 37°C in a final volume of 100 μL. The reaction was initiated by the addition of each protease (approx. 0.01 μg/well) and the rate of substrate hydrolysis was recorded continuously at 37°C, over a 60 min period, by measuring the rate of increase in fluorescence (at λex 360 nm, λem 480 nm) using a FLUOstar Optima microplate reader (BMG Labtech).
# The resultant inhibition progress curves obtained for each inhibitor were analyzed by the kinetic models developed by [Tian and Tsou (1982)] and [Walker and Elmore (1984)], for irreversible inhibitors, with curve fitting being achieved using GraFit (Erithacus Software), as described previously ([Ferguson et al., 2016]).
# FIGURE 4 Progress curves for (A), chymotrypsin-catalysed hydrolysis of Succinyl-Ala-Ala-Pro-Phe-NHMec, in the presence of varying concentrations of NAP849. (B), NE-catalysed hydrolysis of MeO-succinyl-Ala-Ala-Pro-Val-NHMec, in the presence of varying concentrations of NAP800. (C) Trypsin-catalysed of Z-Gly-Gly-Arg-NHMec, in the presence of NAP830. (D) Plasmin-catalysed hydrolysis of Boc-Val-Leu-Lys-NHMec, in the presence of varying concentrations of NAP962. Assays were carried out in PBS, pH 7.4, at 37°C, in the presence of a range of inhibitor concentrations (0.25–50 μM) and a fixed concentration (50 μM) of the appropriate substrate for each protease.
# The “product progress” curves for substrate hydrolysis in the presence of an inhibitor (Figure 4) are indicative of the action of irreversible inhibitors operating through the kinetic scheme illustrated in Figure 6. In this scheme, the formation of the reversible enzyme–inhibitor complex (EI) is zcharacterized by the inhibitor constant K i. This is converted into the covalent/irreversible complex (E-I) characterized by a first-order rate constant k 3. The overall second-order rate constant for the inactivation of E by I is given by the ratio k 3/K i ([Walker and Elmore, 1984]; [Tsou, 1988]).
# Fluorogenic enzyme assays were carried out on a FLUOstar OPTIMA spectro-fluorimeter (BMG Labtech) with analysis performed on MARS Data Analysis Software (BMG Labtech). Black 96-well microtitre plates were supplied by Thermo Scientific. Trypsin from porcine pancreas, plasmin from human plasma and chymotrypsin from bovine pancreas were obtained from Sigma-Aldrich. Thrombin and Cathepsin B were supplied by R and D Systems. Human Neutrophil Elastase was supplied by Calbiochem. Fluorogenic substrates Z-Gly-Gly-Arg-NHMec, Succinyl-Ala-Ala-Pro-Phe-NHMec and MeO-Succinyl-Ala-Ala-Pro-Val-NHMec were supplied by Sigma-Aldrich. Boc-Val-Pro-Arg-NHMec was obtained from R and D Systems and Boc-Val-Leu-Lys-NHMec was supplied by PeptaNova. Phosphate Buffered Saline tablets were acquired from Sigma- Aldrich.
# Protease inactivation by each of the compounds under study was evaluated using a fluorogenic enzyme assays. Protease-substrate combinations used as detailed in Section 2. Inhibitors were made up as 10 mM stock solutions in either DMF or DMSO, then diluted with PBS (pH 7.4) to give appropriate working concentrations. A final volume of 100 μL was used per well. Substrate (50 μM final concentration) was added to a black 96-well microtitre plate (Thermo Scientific), in duplicate, followed by addition of inhibitor, in such a manner to give the required final concentration. […]
Ki [2],k 3 [2],k 3 / K i [2],SMILES,inhibitory activity against CTSB [1]
7.2 µM,0.4 (± 0.05) min^−1,6.2 (± 0.9) × 10^4 M^−1 min^−1,"NCCCCN(CC(=O)NCC(=O)NCC(=O)NCCCOCCOCCOCCCNC(=O)CCCCC1SCC2NC(=O)NC21)C(=O)ON1C(=O)CCC1=O (stereo not drawn) [NAP830, Succinimidoyl-CO-NLys-Gly-Gly-PEG-Biotin]",none of the three carbamates tested exhibited any inhibitory activity against CTSB
4.2 µM,0.6 (± 0.1) min^−1,1.4 (± 0.3) × 10^5 M^−1 min^−1,"CC(C)N(CC(=O)NCCCOCCOCCOCCCNC(=O)CCCCC1SCC2NC(=O)NC21)C(=O)CN(Cc1ccccc1)C(=O)CN(CCCCN)C(=O)ON1C(=O)CCC1=O (centres unmarked) [NAP962, Succinimidoyl-CO-NLys-NPhe-NVal-PEG-Biotin]",none of the three carbamates tested exhibited any inhibitory activity against CTSB
